Laboratory results taken from ChEMBL document CHEMBL1153245, “A profile of the in vitro anti-tumor activity of imidazolium-based ionic liquids” (2010).

Experiments:
Format in all cases: functional
OVCAR-5 = test: Anticancer activity against human OVCAR5 cells after 48 hrs by sulforhodamine B assay
SK-MEL-2 = test: Anticancer activity against human SK-MEL-2 cells after 48 hrs by sulforhodamine B assay; conditions: SK-MEL-2, 48 h
K562 = test: Anticancer activity against human K562 cells after 48 hrs by sulforhodamine B assay
UACC-257 = test: Anticancer activity against human UACC257 cells after 48 hrs by sulforhodamine B assay
[1] = Anticancer activity against human […] cells after 48 hrs by sulforhodamine B assay; conditions: for CC50: read-out: LC50 (the source's name)
TK-10 = test: Anticancer activity against human TK10 cells after 48 hrs by sulforhodamine B assay
M14 = test: Anticancer activity against human M14 cells after 48 hrs by sulforhodamine B assay
MDA-MB-468 = test: Anticancer activity against human MDA-MB-468 cells after 48 hrs by sulforhodamine B assay
MDA-MB-435 = test: Anticancer activity against human MDA-MB-435 cells after 48 hrs by sulforhodamine B assay; conditions: for CC50: read-out: LC50 (the source's name)
[2] = Anticancer activity against human Hs 578T cells after 48 hrs by sulforhodamine B assay
SK-OV-3 = test: Anticancer activity against human SKOV3 cells after 48 hrs by sulforhodamine B assay
SF-268 = test: Anticancer activity against human SF268 cells after 48 hrs by sulforhodamine B assay
IGROV-1 = test: Anticancer activity against human IGROV1 cells after 48 hrs by sulforhodamine B assay; conditions: IGROV-1, 48 h; for CC50: read-out: LC50 (the source's name)
T47D = test: Anticancer activity against human T47D cells after 48 hrs by sulforhodamine B assay
PC-3 = test: Anticancer activity against human PC3 cells after 48 hrs by sulforhodamine B assay
SK-MEL-28 = test: Anticancer activity against human SK-MEL-28 cells after 48 hrs by sulforhodamine B assay
HCC 2998 = test: Anticancer activity against human HCC2998 cells after 48 hrs by sulforhodamine B assay
NCI-H522 = test: Anticancer activity against human NCI-H522 cells after 48 hrs by sulforhodamine B assay
MOLT-4 = test: Anticancer activity against human MOLT4 cells after 48 hrs by sulforhodamine B assay
COLO 205 = test: Anticancer activity against human COLO205 cells after 48 hrs by sulforhodamine B assay
A549 = test: Anticancer activity against human A549 cells after 48 hrs by sulforhodamine B assay
SK-MEL-5 = test: Anticancer activity against human SK-MEL-5 cells after 48 hrs by sulforhodamine B assay; conditions: for CC50: read-out: LC50 (the source's name)
Malme-3M = test: Anticancer activity against human MALME-3M cells after 48 hrs by sulforhodamine B assay
RXF 393 = test: Anticancer activity against human RXF393 cells after 48 hrs by sulforhodamine B assay
NCI-H226 = test: Anticancer activity against human NCI-H226 cells after 48 hrs by sulforhodamine B assay
HCT-15 = test: Anticancer activity against human HCT15 cells after 48 hrs by sulforhodamine B assay
HOP-62 = test: Anticancer activity against human HOP62 cells after 48 hrs by sulforhodamine B assay
SNB-19 = test: Anticancer activity against human SNB19 cells after 48 hrs by sulforhodamine B assay
HCT-116 = test: Anticancer activity against human HCT116 cells after 48 hrs by sulforhodamine B assay
A498 = test: Anticancer activity against human A498 cells after 48 hrs by sulforhodamine B assay
SR = test: Anticancer activity against human SR cells after 48 hrs by sulforhodamine B assay; conditions: for CC50: read-out: LC50 (the source's name)
OVCAR-4 = test: Anticancer activity against human OVCAR4 cells after 48 hrs by sulforhodamine B assay
SF-539 = test: Anticancer activity against human SF539 cells after 48 hrs by sulforhodamine B assay
EKVX = test: Anticancer activity against human EKVX cells assessed cell growth at 10 uM after 48 hrs by sulforhodamine B assay relative to control

CCCCCCCCCCCCCCCCCC[n+]1ccn(C)c1.FC(F)(F)C(F)(F)[P-](F)(F)(F)(C(F)(F)C(F)(F)F)C(F)(F)C(F)(F)F
GI50 (OVCAR-5; Homo sapiens, OVCAR-5, 48 h): 489 nM | CC50 (OVCAR-5; Homo sapiens, OVCAR-5, 48 h, read-out: LC50 (the source's name)): 32700 nM | GI50 (SK-MEL-2): 372 nM | LC50 (SK-MEL-2): > 100000 nM | GI50 (K562; Homo sapiens, K562, 48 h): 238 nM | CC50 (K562; Homo sapiens, K562, 48 h, read-out: LC50 (the source's name)): > 100000 nM | GI50 (UACC-257; Homo sapiens, UACC-257, 48 h): 523 nM | LC50 (UACC-257; Homo sapiens, UACC-257, 48 h): 9710 nM | GI50 ([1]; Homo sapiens, RPMI8266, 48 h): 86 nM | CC50 ([1]; Homo sapiens, RPMI8266, 48 h): > 100000 nM | GI50 (TK-10; Homo sapiens, TK-10, 48 h): 310 nM | LC50 (TK-10; Homo sapiens, TK-10, 48 h): 4120 nM | GI50 (M14; Homo sapiens, M14, 48 h): 402 nM | LC50 (50% lethal concentration) (M14; Homo sapiens, M14, 48 h): > 100000 nM | GI50 (MDA-MB-468; Homo sapiens, MDA-MB-468, 48 h): 173 nM | LC50 (MDA-MB-468; Homo sapiens, MDA-MB-468, 48 h): > 100000 nM | GI50 (MDA-MB-435; Homo sapiens, MDA-MB-435, 48 h): 344 nM | CC50 (MDA-MB-435; Homo sapiens, MDA-MB-435, 48 h): 2930 nM | GI50 ([2]; Homo sapiens, Hs-578T, 48 h): 287 nM | CC50 ([2]; Homo sapiens, Hs-578T, 48 h, read-out: LC50 (the source's name)): 5430 nM | GI50 (SK-OV-3; Homo sapiens, SK-OV-3, 48 h): 355 nM | CC50 (SK-OV-3; Homo sapiens, SK-OV-3, 48 h, read-out: LC50 (the source's name)): 3830 nM | GI50 (SF-268; Homo sapiens, SF-268, 48 h): 481 nM | CC50 (SF-268; Homo sapiens, SF-268, 48 h, read-out: LC50 (the source's name)): 5790 nM | GI50 (IGROV-1): 219 nM | CC50 (IGROV-1): 1440 nM | GI50 (T47D; Homo sapiens, T47D, 48 h): 282 nM | CC50 (T47D; Homo sapiens, T47D, 48 h, read-out: LC50 (the source's name)): 63700 nM | GI50 (PC-3; Homo sapiens, PC-3, 48 h): 276 nM | CC50 (PC-3; Homo sapiens, PC-3, 48 h, read-out: LC50 (the source's name)): 8030 nM | GI50 (SK-MEL-28; Homo sapiens, SK-MEL-28, 48 h): 374 nM | LC50 (SK-MEL-28; Homo sapiens, SK-MEL-28, 48 h): 3980 nM | GI50 (HCC 2998; Homo sapiens, HCC 2998, 48 h): 271 nM | CC50 (HCC 2998; Homo sapiens, HCC 2998, 48 h, read-out: LC50 (the source's name)): 25500 nM | GI50 (NCI-H522; Homo sapiens, NCI-H522, 48 h): 285 nM | LC50 (NCI-H522; Homo sapiens, NCI-H522, 48 h): 4320 nM | GI50 (MOLT-4; Homo sapiens, MOLT-4, 48 h): 336 nM | LC50 (MOLT-4; Homo sapiens, MOLT-4, 48 h): > 100000 nM | GI50 (COLO 205; Homo sapiens, COLO 205, 48 h): 196 nM | CC50 (COLO 205; Homo sapiens, COLO 205, 48 h, read-out: LC50 (the source's name)): 778 nM | GI50 (A549; Homo sapiens, A549, 48 h): 458 nM | LC50 (concentration killing 50% of cells) (A549; Homo sapiens, A549, 48 h): > 100000 nM | GI50 (SK-MEL-5; Homo sapiens, SK-MEL-5, 48 h): 313 nM | CC50 (SK-MEL-5; Homo sapiens, SK-MEL-5, 48 h): 3310 nM | GI50 (Malme-3M; Homo sapiens, Malme-3M, 48 h): 271 nM | LC50 (concentration killing 50% of cells) (Malme-3M; Homo sapiens, Malme-3M, 48 h): 4250 nM | GI50 (RXF 393; Homo sapiens, RXF 393, 48 h): 930 nM | LC50 (RXF 393; Homo sapiens, RXF 393, 48 h): 8310 nM | GI50 (NCI-H226; Homo sapiens, NCI-H226, 48 h): 435 nM | LC50 (NCI-H226; Homo sapiens, NCI-H226, 48 h): 8230 nM | GI50 (HCT-15; Homo sapiens, HCT-15, 48 h): 309 nM | CC50 (HCT-15; Homo sapiens, HCT-15, 48 h, read-out: LC50 (the source's name)): 4410 nM | GI50 (HOP-62; Homo sapiens, HOP-62, 48 h): 390 nM | CC50 (HOP-62; Homo sapiens, HOP-62, 48 h, read-out: LC50 (the source's name)): 6090 nM | GI50 (SNB-19; Homo sapiens, SNB-19, 48 h): 422 nM | CC50 (SNB-19; Homo sapiens, SNB-19, 48 h, read-out: LC50 (the source's name)): 3950 nM | GI50 (HCT-116; Homo sapiens, HCT-116, 48 h): 294 nM | CC50 (HCT-116; Homo sapiens, HCT-116, 48 h, read-out: LC50 (the source's name)): > 100000 nM | GI50 (A498; Homo sapiens, A498, 48 h): 371 nM | CC50 (A498; Homo sapiens, A498, 48 h, read-out: LC50 (the source's name)): 3390 nM | GI50 (SR; Homo sapiens, SR, 48 h): 3370 nM | CC50 (SR; Homo sapiens, SR, 48 h): > 100000 nM | GI50 (OVCAR-4; Homo sapiens, OVCAR-4, 48 h): 320 nM | CC50 (OVCAR-4; Homo sapiens, OVCAR-4, 48 h, read-out: LC50 (the source's name)): > 100000 nM | GI50 (SF-539; Homo sapiens, SF-539, 48 h): 288 nM | LC50 (lethal concentration, 50% cell kill) (SF-539; Homo sapiens, SF-539, 48 h): 4190 nM

Cn1cc[n+](CCO)c1.O=S(=O)([N-]S(=O)(=O)C(F)(F)F)C(F)(F)F
Activity (EKVX): 100.51%

CCCCCCCCCCCC[n+]1ccn(C)c1.F[B-](F)(F)F
GI50 (OVCAR-5): 7490 nM | GI50 (K562): 363 nM | GI50 (UACC-257): 3060 nM | GI50 [1]: 312 nM | CC50 [1]: 9480 nM | GI50 (TK-10): 2040 nM | GI50 (M14): 4150 nM | GI50 (MDA-MB-468): 556 nM | GI50 (MDA-MB-435): 2150 nM | CC50 (MDA-MB-435): 77500 nM | GI50 [2]: 6110 nM | GI50 (SK-OV-3): 5970 nM | GI50 (SF-268): 5980 nM | GI50 (IGROV-1): 533 nM | CC50 (IGROV-1): > 100000 nM | GI50 (T47D): 4310 nM | GI50 (PC-3): 2080 nM | GI50 (SK-MEL-28): 10100 nM | GI50 (HCC 2998): 4180 nM | GI50 (NCI-H522): 2960 nM | GI50 (MOLT-4): 2580 nM | GI50 (COLO 205): 3410 nM | GI50 (A549): 7140 nM | GI50 (SK-MEL-5): 1660 nM | CC50 (SK-MEL-5): 54500 nM | GI50 (Malme-3M): 5060 nM | GI50 (RXF 393): 6520 nM | GI50 (NCI-H226): 4620 nM | GI50 (HCT-15): 18100 nM | GI50 (HOP-62): 9480 nM | GI50 (SNB-19): 10900 nM | GI50 (HCT-116): 2360 nM | GI50 (A498): 7530 nM | GI50 (SR): 1060 nM | CC50 (SR): > 100000 nM | GI50 (OVCAR-4): 2590 nM | GI50 (SF-539): 2880 nM
